Measurements: ChEMBL document CHEMBL1201862, “PubChem BioAssay data set” (2004)
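Where inhibition never reached the appropriate level, the endpoint shown equals the highest concentration tested. Otherwise, values were interpolated linearly from a five-concentration, 48-hour dose response in 96-well plates. At the GI50, growth is halved.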 Calls of active or inactive are those of the source. Cut-off read from the data, not from the text of the source: active = GI50 up to about 1.1 µM and inactive = higher.

Tests used:
Test in all cases: NCI anticancer screen, dose series, 48 h
786-0 = system: 786-0
A498 = system: A498
BT-549 = system: BT-549
HCC 2998 = system: HCC 2998
HCT-116 = system: HCT-116
HOP-92 = system: HOP-92
K562 = system: K562
LOX IMVI = system: LOX IMVI
NCI-H23 = system: NCI-H23
OVCAR-5 = system: OVCAR-5
RXF 393 = system: RXF 393
SK-OV-3 = system: SK-OV-3
SN12C = system: SN12C
SNB-19 = system: SNB-19
UACC-257 = system: UACC-257
HCT-15 = system: HCT-15
NCI/ADR-RES = system: NCI/ADR-RES

Row | Compound | GI50 (786-0) | GI50 (A498) | GI50 (BT-549) | GI50 (HCC 2998) | GI50 (HCT-116) | GI50 (HOP-92) | GI50 (K562) | GI50 (LOX IMVI) | GI50 (NCI-H23) | GI50 (OVCAR-5) | GI50 (RXF 393) | GI50 (SK-OV-3) | GI50 (SN12C) | GI50 (SNB-19) | GI50 (UACC-257) | GI50 (HCT-15) | GI50 (NCI/ADR-RES)
1 | Nc1nc(N)c2c(-c3ccccc3)ccnc2n1 | 67.1 µM (inactive) | > 100 µM (inactive) | > 100 µM (inactive) | > 100 µM (inactive) | > 100 µM (inactive) | 81.7 µM (inactive) | > 100 µM (inactive) | > 100 µM (inactive) | > 100 µM (inactive) | > 100 µM (inactive) | > 100 µM (inactive) | > 100 µM (inactive) | > 100 µM (inactive) | > 100 µM (inactive) | > 100 µM (inactive) | – | –
2 | CC1=CC2=C(C#N)C(=O)OC2(C)C(c2ccccc2)C1 (stereo unspecified) | > 100 µM (inactive) | > 100 µM (inactive) | > 100 µM (inactive) | – | > 100 µM (inactive) | 87.5 µM (inactive) | 68.7 µM (inactive) | > 100 µM (inactive) | – | > 100 µM (inactive) | – | > 100 µM (inactive) | > 100 µM (inactive) | > 100 µM (inactive) | > 100 µM (inactive) | > 100 µM | 72.1 µM (inactive)
3 | CCOC(=O)C1CCC/C1=N\NC(=N)N.Cc1cc(O)c(C(C)C)cc1S(=O)(=O)O (stereo unspecified) | > 100 µM (inactive) | > 100 µM (inactive) | > 100 µM (inactive) | > 100 µM (inactive) | > 100 µM (inactive) | – | > 100 µM (inactive) | > 100 µM (inactive) | > 100 µM (inactive) | > 100 µM (inactive) | > 100 µM (inactive) | > 100 µM (inactive) | > 100 µM (inactive) | > 100 µM (inactive) | > 100 µM (inactive) | > 100 µM | > 100 µM (inactive)
4 | CCn1c2ccccc2c2cc(Nc3cc(C)[nH]c(=O)n3)ccc21 | > 100 µM (inactive) | > 100 µM (inactive) | – | > 100 µM (inactive) | > 100 µM (inactive) | > 100 µM (inactive) | 0.47 µM (active) | – | > 100 µM (inactive) | > 100 µM (inactive) | > 100 µM (inactive) | > 100 µM (inactive) | > 100 µM (inactive) | > 100 µM (inactive) | > 100 µM (inactive) | > 100 µM | > 100 µM (inactive)
5 | Nc1ccc2[nH]cc(CCC(=O)O)c2c1 | > 100 µM (inactive) | > 100 µM (inactive) | > 100 µM (inactive) | – | > 100 µM (inactive) | – | – | > 100 µM (inactive) | > 100 µM (inactive) | > 100 µM (inactive) | > 100 µM (inactive) | > 100 µM (inactive) | > 100 µM (inactive) | > 100 µM (inactive) | > 100 µM (inactive) | > 100 µM | > 100 µM (inactive)
6 | S=C(S)NCNC(=S)S | > 100 µM (inactive) | 89.7 µM (inactive) | – | > 100 µM (inactive) | > 100 µM (inactive) | > 100 µM (inactive) | > 100 µM (inactive) | > 100 µM (inactive) | > 100 µM (inactive) | > 100 µM (inactive) | > 100 µM (inactive) | > 100 µM (inactive) | > 100 µM (inactive) | > 100 µM (inactive) | > 100 µM (inactive) | > 100 µM | > 100 µM (inactive)
7 | Nc1ccccc1N/C(=C\C(=O)C(Cl)(Cl)Cl)c1ccccc1 | 20.4 µM (inactive) | – | 25.7 µM (inactive) | 17.3 µM (inactive) | 16.1 µM (inactive) | 14.5 µM (inactive) | 30.2 µM (inactive) | 19.5 µM (inactive) | 30.3 µM (inactive) | 15.7 µM (inactive) | 19.1 µM (inactive) | 88.5 µM (inactive) | 20.1 µM (inactive) | 36.9 µM (inactive) | 23.9 µM (inactive) | 25.4 µM | 29.2 µM (inactive)
